The values below come from ChEMBL document CHEMBL1781964, “Exploring molecular shape analysis of styrylquinoline derivatives as HIV-1 integrase inhibitors” (Eur J Med Chem, 2008).

For this experiment, the target named is Human immunodeficiency virus type 1 integrase (Human immunodeficiency virus 1, UniProt Q7ZJM1). Briefly: Inhibition of HIV1 integrase 3' processing activity.
Chain of Human immunodeficiency virus type 1 integrase (Q7ZJM1 whole entry): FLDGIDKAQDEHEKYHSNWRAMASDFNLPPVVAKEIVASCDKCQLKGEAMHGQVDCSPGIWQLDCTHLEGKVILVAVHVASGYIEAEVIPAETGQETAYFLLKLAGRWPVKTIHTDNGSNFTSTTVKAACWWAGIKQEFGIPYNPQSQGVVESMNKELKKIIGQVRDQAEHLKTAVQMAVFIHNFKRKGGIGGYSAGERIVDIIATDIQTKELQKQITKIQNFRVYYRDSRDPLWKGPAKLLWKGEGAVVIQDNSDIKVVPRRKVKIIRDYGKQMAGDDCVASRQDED
Usually IC50 stands for the concentration that inhibits the measured activity by half. A low value points to higher potency. `Cc1ccc2cccc(O)c2n1` [8-HYDROXY QUINALDINE] had an IC50 of 100 µM.
Under `O=[N+]([O-])c1cccc2ccc(/C=C/c3ccc(O)c(O)c3)nc12` stands 100 µM.
For `COc1ccc(/C=C/C(=O)Oc2cccc3ccc(C)nc23)cc1OC` the value was 100 µM; for `O=C(O)c1ccc2ccc(/C=C/c3ccc(O)c(O)c3O)nc2c1O`, 0.302 µM.
For `Nc1cccc2ccc(/C=C/c3ccc(O)c(O)c3)nc12` the value was 100 µM; for `Oc1ccc(/C=C/c2ccc3c(Cl)cc(Cl)c(O)c3n2)cc1O`, 100 µM; for `COC(=O)c1ccc2ccc(/C=C/c3ccc(O)c(O)c3)nc2c1O`, 100 µM.
Consider `CC(=O)Oc1ccc(/C=C/c2ccc3cccc(OC(C)=O)c3n2)cc1OC(C)=O`, for which the IC50 is 100 µM.
`Cc1ccc2ccc(C(=O)O)c(O)c2n1` showed an IC50 of 100 µM.
Under `Oc1cccc2ccc(/C=C/c3ccccc3)nc12` stands 100 µM.
Under `Oc1cccc2ccc(/C=C/c3ccc4cccc(O)c4n3)nc12` stands 100 µM; under `CC(=O)Oc1cccc2ccc(/C=C/c3ccccc3)nc12`, 100 µM; under `Cc1cc(/C=C/c2ccc3ccc(C(=O)O)c(O)c3n2)ccc1O`, 2.82 µM.
On to `Cc1ccc2cccc(OC(=O)/C=C/c3ccc(O)c(O)c3)c2n1`, for which the IC50 was 100 µM. This IC50 is about 35-fold higher than that of the compound before.
On to `Oc1ccc(/C=C/c2ccc3ccccc3n2)cc1O`, for which 100 µM corresponded to half-maximal inhibition (IC50).
